Laboratory results as given in patent US8519004B2 (Repros Therapeutics Inc., priority 2005, dated 2013).
Where a name gives a salt, the structure may show the parent alone.

What was measured:
[1] = test system: serum cholesterol; experiment: Serum cholesterol in male baboons; type: in vivo; settings: 1.5 mg/kg for 12 days
Excerpt: (§1) The samples analyzed were sera taken on the day of first treatment before being given test article (day 0), after 12 days of treatment (day 12) and 7 days after the last treatment (end or wash-out).

[2] = Clinical chemistry and hematology parameters in male baboons; type: in vivo; settings: for serum glucose: change with treatment; for ALT/SGPT: changes over the treatment period / end of the study; for serum carbon dioxide: day 12; for serum anion gap: day 12 and washout; for BUN and BUN/creatinine: during the study
Excerpt: as §1

[3] = test system: serum total testosterone
Description: (§2) Half of the men in each of the Androxal™ and placebo arms were randomized into cohorts that underwent in-clinic sessions on days 1 and 14 to determine pharmacokinetic parameters for Androxal™ as well as cyclical changes in testosterone. The placebo and Androxal™ doses were administered in a double blind fashion. The Androgel® cream was administered in an open label fashion. Half of the Androgel® patients underwent in-clinic sessions similar to the other patients in the study. Following the two week drug exposure patients were followed for an additional seven to ten days to determine the status of their testosterone levels.

[4] = 50 mg dose; placebo group ratio 1.07
Description: as §2

[5] = test system: serum testosterone; experiment: Serum testosterone in male baboons given Clomid, Enclomid or Zuclomid; type: in vivo; settings: between day 12 and day 18 (washout)
Excerpt: as §1

[6] = test system: serum LH and FSH; settings: during treatment
Description: as §2

[7] = following a single dose; cited from earlier work

Structure (SMILES)	increase in serum cholesterol levels [1]	serum glucose [2]	ALT/SGPT [2]	serum carbon dioxide [2]	serum anion gap [2]	BUN and BUN/creatinine [2]	serum total testosterone in the follow-up period ([3]; 7-10 days after cessation of daily oral treatment)	changes in testosterone from baseline testosterone levels ([3]; all doses)	serum total testosterone in follow-up, highest dose compared to the high dose of AndroGel 1% ([3]; follow-up period, p=0.017, t-test)	DHT/TT ratio [4]	eosinophil count ([2]; 1.5 mg/kg for 12 days)	lymphocyte count ([2]; 1.5 mg/kg for 12 days)	red blood cell population ([2]; 1.5 mg/kg for 12 days)	serum creatinine ([2]; between day 0 and Day 12)	percent of granulocytes in the blood ([2]; very strong after the 7-day washout period)	change in total serum testosterone after cessation of treatment [5]	serum levels of FSH [6]	serum levels of LH [6]	duration of residual blood levels [7]
CCN(CC)CCOc1ccc(C(=C(Cl)c2ccccc2)c2ccccc2)cc1 [Clomid, clomiphene citrate]	slight increase	within the normal range	out of range low	higher than reference values	lower values than the Enclomid group	altered													
CCN(CC)CCOc1ccc(/C(=C(\Cl)c2ccccc2)c2ccccc2)cc1 [Enclomid, trans-clomiphene]			within the normal range		raised this parameter towards normal values	altered	remained high	statistically significant changes in testosterone	significantly higher	0.83	raising the counts of lymphocytes and eosinophiles	increase in lymphocyte count	substantive effects on the red blood cell population	no differences between serum creatinine values	lowering the percent of granulocytes in the blood	significant drop in the level of total serum testosterone	statistically increase	statistically significant increase	
CCN(CC)CCOc1ccc(/C(=C(/Cl)c2ccccc2)c2ccccc2)cc1 [Zuclomid, cis-clomiphene]		within the normal range	within the normal range	higher than reference values	lower values than the Enclomid group								substantive effects on the red blood cell population						in excess of one month
